One data set has as its system A2780/cp70. Nature of the data set: Inhibition of cell growth, cisplatin resistant A2780/cp70 cell line. The class given is cell-based, human. The settings on record: for RF A2780/cp70 (IC50 in resistant cell line/IC50 in parent cell line): A2780/cp70 vs A2780.
The next data set has as its system 2780AD. The data set can be described thus: Inhibition of cell growth, adriamycin (doxorubicin) resistant 2780AD cell line. The settings on record: for IC50: read-out: Inhibition of cell growth 2780AD nM (IC50); for RF 2780AD (IC50 in resistant cell line/IC50 in parent cell line): 2780AD vs A2780. The class given is cell-based, human.
A further data set concerns A2780. The data set can be described thus: Inhibition of cell growth, A2780 wild type ovarian carcinoma cell line.
[1] abbreviates: Homo sapiens, A2780/CP70, read-out: Inhibition of cell growth A2780/cp70 nM (IC50).
Where [2] appears, read: Homo sapiens, A2780, read-out: Inhibition of cell growth A2780 nM (IC50).
Setting [3] is: A2780/cp70 cisplatin resistant, read-out: Inhibition of cell growth A2780/cp70 nM (IC50).
The mark [4] stands for this setting: read-out: Inhibition of cell growth (IC50, nM) A2780, A2780, Table 1.
[5] abbreviates: read-out: Growth Inhibition (IC50) A2780, A2780, Table 4.

Like-named read-outs stand apart in the source and are kept apart here.

Take `O=C1c2c(O)ccc(O)c2C(=O)c2c(NCCN3CCCC(CCl)C3)ccc(NCCN3CCCC(CCl)C3)c21` (stereo not drawn) [CAQ74, 1,4-Bis-{[2-(3-chloromethylpiperidin-1-yl)ethyl]amino}-5,8-dihydroxyanthracene-9,10-dione]: the IC50 in the data set on A2780/cp70 (setting [1]) is more than 1000 nM; with 2780AD (Homo sapiens, 2780AD) it was more than 1000 nM; in the data set with A2780 (setting [2]), more than 1000 nM.

For `CN(C)CCNc1ccc(NCCN2CCCC(Cl)C2)c2c1C(=O)c1c(O)ccc(O)c1C2=O` (stereo not drawn) [CAQ166M, 1-{[2-(3-Chloropiperidin-1-yl)ethyl]amino}-4-{[(2-dimethylamino)ethyl]amino}-5,8-dihydroxyanthracene-9,10-dione], the IC50 in the data set on A2780/cp70 (setting [3]) was 63 nM; in the data set on 2780AD (2780AD adriamycin resistant), 75 nM. Also, the “RF A2780/cp70 (IC50 in resistant cell line/IC50 in parent cell line)” value (shortened to “RF A2780/cp70”) in the data set with A2780/cp70 came to 7. Further, the “RF 2780AD (IC50 in resistant cell line/IC50 in parent cell line)” value (“RF 2780AD” for short) in the data set with 2780AD amounted to 8.3.

On to `CN(C)CCNc1ccc(NCCN2CCC(Cl)CC2)c2c1C(=O)c1c(O)ccc(O)c1C2=O` [CAQ172, 1-{[2-(4-Chloropiperidin-1-yl)ethyl]amino}-4-{[(2-dimethylamino)ethyl]amino}-5,8-dihydroxyanthracene-9,10-dione], for which the results for the IC50 in the data set with A2780/cp70 (setting [3]) and in the data set on 2780AD (2780AD adriamycin resistant) were 535 nM and 426 nM, respectively. Moreover, the “RF A2780/cp70” value in the data set on A2780/cp70 is given as 0.9. Besides, the “RF 2780AD” value with 2780AD is 0.7.

`CN(C)CCNc1ccc(NCCN2CCCC2CCl)c2c1C(=O)c1c(O)ccc(O)c1C2=O` (stereo not drawn) [CAQ176M, 1-{[2-(2-Chloromethylpyrrolidin-1-yl)ethyl]-amino}-4-{[(2-Dimethylamino)ethyl]amino}-5,8-dihydroxyanthracene-9,10-dione]: the IC50 in the data set on A2780/cp70 (setting [3]) was 79 nM; in the data set with 2780AD (2780AD adriamycin resistant), 292 nM. Besides, in the data set with A2780/cp70, the “RF A2780/cp70” value is on record as 2.7. Also, the “RF 2780AD” value in the data set with 2780AD is on record as 10.1.

With `O=C1c2c(O)ccc(O)c2C(=O)c2c(NCCN3CCCC3CCl)ccc(NCCN3CCCC3CCl)c21` (stereo not drawn) [CAQ177M, 1,4-Bis-{[2-(2-chloromethylpyrrolidin-1-yl)ethyl]amino}-5,8-dihydroxyanthracene-9,10-dione], the “RF A2780/cp70” value with A2780/cp70 was found to be 1. For the same molecule, the IC50 with A2780/cp70 (setting [1]) is 442 nM; in the data set with 2780AD (Homo sapiens, 2780AD) it was 782 nM; in the data set with A2780 (setting [2]), 428 nM. In the data set with 2780AD, the “RF 2780AD” value worked out at 1.8.

For the molecule `CN(C)CCNc1ccc(NCCN2CCCCC2CCl)c2c1C(=O)c1c(O)ccc(O)c1C2=O` (stereo not drawn) [CAQ183M, 1-{[2-(2-Chloromethylpiperidin-1-yl)ethyl]-amino}-4-{[(2-dimethylamino)ethyl]amino}-5,8-dihydroxyanthracene-9,10-dione], the IC50 in the data set on A2780/cp70 (setting [3]) worked out at 69 nM; in the data set on 2780AD (2780AD adriamycin resistant), 91 nM. Further, in the data set on A2780/cp70, the “RF A2780/cp70” value is on record as 1.7. The “RF 2780AD” value in the data set with 2780AD turned out to be 2.3.

For the molecule `CN(C)CCNc1ccc(NCCN2C(CCl)CCCC2CCl)c2c1C(=O)c1c(O)ccc(O)c1C2=O` (stereo not drawn) [CAQ187M, 1-{[2-(2,6-Dichloromethylpiperidin-1-yl)ethyl]-amino}-4-{[(2-dimethylamino)ethyl]amino}-5,8-dihydroxyanthracene-9,10-dione], the IC50 is 357 nM with A2780/cp70 (setting [3]) and 106 nM with 2780AD (2780AD adriamycin resistant). Further, the “RF A2780/cp70” value with A2780/cp70 was determined as 14.9. Also, the “RF 2780AD” value in the data set on 2780AD is 4.4.

Consider `CN(C)CCNc1ccc(NCCN2CCC(Cl)C2)c2c1C(=O)c1c(O)ccc(O)c1C2=O` (stereo not drawn) [CAQ188M, 1-{[2-(3-Chloropyrrolidin-1-yl)ethyl]amino}-4-{[(2-dimethylamino)ethyl]amino}-5,8-dihydroxyanthracene-9,10-dione], for which the values for the IC50 in the data set on A2780/cp70 (setting [3]) and in the data set with 2780AD (2780AD adriamycin resistant) were 96 nM and 342 nM, respectively. In addition, the “RF A2780/cp70” value in the data set with A2780/cp70 was 1.4. For the same molecule, the “RF 2780AD” value in the data set on 2780AD is on record as 5.0.

Regarding `O=C1c2c(O)ccc(O)c2C(=O)c2c(NCCN3CCCCC3CCl)ccc(NCCN3CCCCC3CCl)c21` (stereo not drawn) [CAQ190M, 1,4-Bis-{[2-(2-chloromethylpiperidin-1-yl)ethyl]amino}-5,8-dihydroxyanthracene-9,10-dione], the IC50 is more than 1000 nM in the data set on A2780/cp70 (setting [1]); more than 1000 nM with 2780AD (Homo sapiens, 2780AD); 178 nM with A2780 (setting [2]).

Regarding `O=C1c2ccccc2C(=O)c2c(NCCN3CCCC3CCl)cccc21` (stereo not drawn) [CAQ191M, 1-{[2-(2-chloromethylpyrrolidin-1-yl)ethyl]amino}-anthracene-9,10-dione], the melting point lay in the range of 250 to 253 °C. The IC50 in the data set with A2780/cp70 (setting [1]) is more than 1000 nM. Moreover, the IC50 in the data set with 2780AD (Homo sapiens, 2780AD) was more than 1000 nM. Also, the IC50 in the data set with A2780 (setting [2]) is more than 1000 nM.

As to `O=C1c2ccccc2C(=O)c2c(NCCN3CCCC(CO)C3)ccc(NCCN3CCCC(CO)C3)c21` (stereo not drawn) [HAQ38, 1,4-Bis-{[2-(3-hydroxymethylpiperidine-1-yl)ethyl]amino}-anthracene-9,10-dione], the melting point fell in the range of 112 to 114 °C.

In the case of `O=C1c2c(O)ccc(O)c2C(=O)c2c(NCCN3CCCC(CO)C3)ccc(NCCN3CCCC(CO)C3)c21` (stereo not drawn) [HAQ70, 1,4-Bis-{[2-(3-hydroxymethylpiperidine-1-yl)ethyl]amino}-5,8-dihydroxyanthracene-9,10-dione], the melting point lay in the range of 180 to 183 °C.

Consider `CN(C)CCNc1ccc(NCCN2CCCC(O)C2)c2c1C(=O)c1c(O)ccc(O)c1C2=O` (stereo not drawn) [HAQ73, 1-[(2-Dimethylamino)ethylamino]-4-[2-(3-hydroxypiperidon-1-yl)ethylamino]-5,8-dihydroxy-anthracene-9,10-dione], for which the IC50 in the data set on A2780 (setting [4]) came out at 10.8 nM.

As to `O=C1c2c(O)ccc(O)c2C(=O)c2c(NCCN3CCCCC3CO)ccc(NCCN3CCCCC3CO)c21` (stereo not drawn) [HAQ105, 1,4-Bis-{[2-(2-hydroxymethylpiperidine-1-yl)ethyl]amino}-5,8-dihydroxy-anthracene-9,10-dione], the melting point lay in the range of 208 to 210 °C.

As for `CN(C)CCNc1ccc(NCCN2CCCC2CO)c2c1C(=O)c1c(O)ccc(O)c1C2=O` (stereo not drawn) [HAQ110, 1-{[(2-Dimethylamino)ethyl]amino}-4-{[2-(2-hydroxymethylpyrrolidin-1-yl)ethyl]-amino}-5,8-dihydroxy-anthracene-9,10-dione], the IC50 in the data set on A2780 (setting [5]) turned out to be 69 nM.

Take `CN(C)CCNc1ccc(NCCN2CCC(O)CC2)c2c1C(=O)c1c(O)ccc(O)c1C2=O` [HAQ111, 1-{[(2-Dimethylamino)ethyl]amino}-4-{[2-(4-hydroxypiperidin-1-yl)ethyl]amino}-5,8-dihydroxy-anthracene-9,10-dione]: the IC50 in the data set on A2780 (setting [4]) was 6.1 nM.

In turn, `O=C1c2c(O)ccc(O)c2C(=O)c2c(NCCN3CCC(O)C3)ccc(NCCN3CCC(O)C3)c21` (stereo not drawn) [HAQ115, 1,4-Bis-{[2-(3-hydroxypyrrolidin-1-yl)ethyl]amino}-5,8-dihydroxy-anthracene-9,10-dione] showed a melting point of 197 to 199 °C.

For `O=C1c2c(O)ccc(O)c2C(=O)c2c(NCCN3CCC(O)CC3)ccc(NCCN3CCC(O)CC3)c21` [HAQ116, 1,4-Bis-{[2-(4-hydroxypiperidin-1-yl)ethyl]amino}-5,8-dihydroxy-anthracene-9,10-dione], the melting point is 241 to 244 °C.

`O=C1c2c(O)ccc(O)c2C(=O)c2c(NCCN3CCCC3CO)ccc(NCCN3CCCC3CO)c21` (stereo not drawn) [HAQ125, 1,4-Bis-{[2-(2-hydroxymethylpyrrolidin-1-yl)ethyl]amino}-5,8-dihydroxy-anthracene-9,10-dione] came in with a melting point of 202 to 204 °C.

For the molecule `C[N+](C)([O-])CCNc1ccc(NCC[N+]2([O-])CCCC2CO)c2c1C(=O)c1c(O)ccc(O)c1C2=O` (stereo not drawn) [HAQ132N, 1-{[2-(2-Hydroxymethylpyrrolidin-1-yl-N-oxide)ethyl]amino}-4-{[(2-dimethylamino-N-oxide)ethyl]amino}-5,8-dihydroxy-anthracene-9,10-dione], the IC50 in the data set with A2780 (setting [5]) is more than 100000 nM; with A2780 (read-out: IC50 of di-N-oxides (order of cytotoxicity), text b286), more than 100000 nM. The “cytotoxicity ratio (CR=IC50 of alkylaminoanthraquinone-di-N-oxide/IC50 alkylaminoanthraquinone)” value in the data set on A2780 (text b286) is 1,450.

For the molecule `O=C1c2c(O)ccc(O)c2C(=O)c2c(NCCN3CCCCC3)ccc(NCCN3CCCCC3)c21` [HAQ145, 1,4-Bis-{[2-(piperidin-1-yl)ethyl]amino}-5,8-dihydroxy-anthracene-9,10-dione], the melting point was 219 to 221 °C.

Regarding `CN(C)CCNc1ccc(NCCN2CCCCC2)c2c1C(=O)c1c(O)ccc(O)c1C2=O` [HAQ148, 1-{[(2-Dimethylamino)ethyl]amino}-4-{[2-(piperidin-1-yl)ethyl]amino}-5,8-dihydroxyanthracene-9,10-dione, reference compound], the IC50 with A2780/cp70 (setting [3]) was more than 1000 nM; in the data set on 2780AD (2780AD adriamycin resistant), more than 1000 nM; in the data set on A2780 (setting [4]) it was more than 1000 nM; in the data set with A2780 (read-out: Inhibition of cell growth A2780 nM (IC50), A2780 wild type, Table 2) it was more than 1000 nM.

The molecule `O=C1c2ccccc2C(=O)c2c(NCCN3CCCC3CO)cccc21` (stereo not drawn) [HAQ163, 1-{[2-(2-Hydroxymethylpyrrolidin-1-yl)ethyl]amino}-anthracene-9,10-dione] showed a melting point of 113 to 115 °C. Moreover, the IC50 in the data set on A2780/cp70 (Homo sapiens, A2780/cp70 cisplatin resistant, read-out: Inhibition of cell growth A2780/cp70 nM (IC50)) was more than 1000 nM. Also, the IC50 in the data set on 2780AD (Homo sapiens, 2780AD adriamycin resistant) is more than 1000 nM. Moreover, the IC50 with A2780 (read-out: Inhibition of cell growth A2780 nM (IC50)) is more than 1000 nM.

The values are drawn from patent publication US7557215B2, “Anthraquinone compounds as anti cancer compounds” (Somanta Limited, priority 2003, dated 2009).
